# Assay results published in publication PMC11575720 (RSC Advances, 2024).
# Columns and labels:
# [1] = target: L. major DHFR (Leishmania major, UniProt P07382); assay: L. major DHFR; format: biochemical
# [2] = target: T1, L. major PTR1 (Leishmania major, UniProt Q01782); assay: L. major PTR1 enzyme inhibition assay; format: biochemical
# T1 sequence (Q01782 1-288): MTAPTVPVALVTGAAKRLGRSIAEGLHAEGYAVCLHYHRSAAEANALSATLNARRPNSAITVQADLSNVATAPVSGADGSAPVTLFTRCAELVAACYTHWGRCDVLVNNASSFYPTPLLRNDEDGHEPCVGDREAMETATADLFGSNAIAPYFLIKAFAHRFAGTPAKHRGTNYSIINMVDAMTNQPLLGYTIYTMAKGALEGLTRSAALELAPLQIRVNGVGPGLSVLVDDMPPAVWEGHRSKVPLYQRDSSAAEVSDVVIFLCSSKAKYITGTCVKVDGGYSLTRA
# Sequence of L. major DHFR (P07382 whole entry): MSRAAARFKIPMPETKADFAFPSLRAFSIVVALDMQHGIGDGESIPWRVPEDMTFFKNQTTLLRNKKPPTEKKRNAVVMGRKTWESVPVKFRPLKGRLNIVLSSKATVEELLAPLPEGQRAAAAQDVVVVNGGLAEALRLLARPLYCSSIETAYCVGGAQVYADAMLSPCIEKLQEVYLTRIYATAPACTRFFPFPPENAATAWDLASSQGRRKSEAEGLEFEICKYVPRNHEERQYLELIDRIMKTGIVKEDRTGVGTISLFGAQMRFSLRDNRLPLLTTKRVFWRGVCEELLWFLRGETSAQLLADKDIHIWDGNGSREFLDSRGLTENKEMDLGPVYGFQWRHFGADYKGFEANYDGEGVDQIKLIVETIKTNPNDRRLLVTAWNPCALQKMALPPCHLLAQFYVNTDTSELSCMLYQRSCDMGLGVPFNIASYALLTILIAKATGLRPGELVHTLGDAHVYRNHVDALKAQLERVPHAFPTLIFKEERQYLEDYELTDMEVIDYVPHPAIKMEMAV
IC50 [1],IC50 [2],Structure (SMILES)
8.09 ± 0.01 µM,0.58 ± 0.05 µM,"O=C(NC(=S)Nc1cccc(O)c1)c1cccs1 [Compound 4g, N-((3-Hydroxyphenyl)carbamothioyl)thiophene-2-carboxamide]"
2.63 ± 0.01 µM,15.86 ± 0.01 µM,"Cc1nc(NC(=S)NCc2ccco2)nc(-c2ccccc2)c1C(=O)N1CCC(C(=O)O)CC1 [Compound 20a, 1-(2-(3-(Furan-2-ylmethyl)thioureido)-4-methyl-6-phenylpyrimidine-5-carbonyl)piperidine-4-carboxylic acid]"
1.14 ± 0.01 µM,19.89 ± 0.01 µM,"Cc1nc(NC(=S)NCc2cccs2)nc(-c2ccccc2)c1C(=O)N1CCC(C(=O)O)CC1 [Compound 20b, 1-(4-Methyl-6-phenyl-2-(3-(thiophen-2-ylmethyl)thioureido)pyrimidine-5-carbonyl)piperidine-4-carboxylic acid]"
